Test results from PubChem BioAssay (NCI).
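96-well plates; 48 h exposure; 5 concentrations. Endpoints by linear interpolation between flanking doses. Not reached: highest tested concentration assigned. GI50 is the concentration that inhibits growth by half. The concentration for full growth arrest is given as TGI.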

What was measured:
Assay in all cases: NCI-60 cell line screen, 48 h
ACHN renal = system: ACHN renal
CAKI-1 renal = system: CAKI-1 renal
T-47D breast = system: T-47D breast
SNB-19 CNS = system: SNB-19 CNS
OVCAR-4 ovarian = system: OVCAR-4 ovarian
SK-MEL-2 melanoma = system: SK-MEL-2 melanoma
SNB-75 CNS = system: SNB-75 CNS
COLO 205 colon = system: COLO 205 colon
CCRF-CEM leukemia = system: CCRF-CEM leukemia
HS 578T breast = system: HS 578T breast
HL-60(TB) leukemia = system: HL-60(TB) leukemia
NCI-H226 lung = system: NCI-H226 lung
UACC-62 melanoma = system: UACC-62 melanoma
UO-31 renal = system: UO-31 renal
NCI-H460 lung = system: NCI-H460 lung
BT-549 breast = system: BT-549 breast
MCF7 breast = system: MCF7 breast
K-562 leukemia = system: K-562 leukemia
786-0 renal = system: 786-0 renal
SN12C renal = system: SN12C renal
OVCAR-8 ovarian = system: OVCAR-8 ovarian
MDA-MB-231 breast = system: MDA-MB-231 breast
OVCAR-5 ovarian = system: OVCAR-5 ovarian
UACC-257 melanoma = system: UACC-257 melanoma
SF-268 CNS = system: SF-268 CNS
SR leukemia = system: SR leukemia
HCC-2998 colon = system: HCC-2998 colon
SF-539 CNS = system: SF-539 CNS
A549 NSCLC = system: A549 NSCLC
U251 CNS = system: U251 CNS
A498 renal = system: A498 renal
NCI/ADR-RES ovarian = system: NCI/ADR-RES ovarian
HCT-116 colon = system: HCT-116 colon
MALME-3M melanoma = system: MALME-3M melanoma
TK-10 renal = system: TK-10 renal
KM12 colon = system: KM12 colon
OVCAR-3 ovarian = system: OVCAR-3 ovarian
SK-OV-3 ovarian = system: SK-OV-3 ovarian
HT29 colon = system: HT29 colon
RPMI-8226 leukemia = system: RPMI-8226 leukemia
SF-295 CNS = system: SF-295 CNS
HOP-92 NSCLC = system: HOP-92 NSCLC
PC-3 prostate = system: PC-3 prostate
MDA-MB-435 = system: MDA-MB-435
LOX IMVI melanoma = system: LOX IMVI melanoma
HOP-62 NSCLC = system: HOP-62 NSCLC
EKVX NSCLC = system: EKVX NSCLC
NCI-H522 lung = system: NCI-H522 lung
DU-145 prostate = system: DU-145 prostate
HCT-15 colon = system: HCT-15 colon
SK-MEL-28 melanoma = system: SK-MEL-28 melanoma
M14 melanoma = system: M14 melanoma
SW-620 colon = system: SW-620 colon
NCI-H23 lung = system: NCI-H23 lung
SK-MEL-5 melanoma = system: SK-MEL-5 melanoma
IGROV1 ovarian = system: IGROV1 ovarian
MOLT-4 leukemia = system: MOLT-4 leukemia

CC(C)(C)Nc1nc2c(OCCc3ccccc3)cccn2c1-c1cccc(Oc2ccccc2)c1
GI50 (ACHN renal): 7.67 µM
TGI (ACHN renal): > 100 µM
GI50 (CAKI-1 renal): 9.11 µM
TGI (CAKI-1 renal): > 100 µM
GI50 (T-47D breast): 3.13 µM
TGI (T-47D breast): > 100 µM
GI50 (SNB-19 CNS): 6.62 µM
TGI (SNB-19 CNS): > 100 µM
GI50 (OVCAR-4 ovarian): 4 µM
TGI (OVCAR-4 ovarian): > 100 µM
GI50 (SK-MEL-2 melanoma): 5.16 µM
TGI (SK-MEL-2 melanoma): 26.8 µM
GI50 (SNB-75 CNS): 5.53 µM
TGI (SNB-75 CNS): > 100 µM
GI50 (COLO 205 colon): 12.3 µM
TGI (COLO 205 colon): 25.9 µM
GI50 (CCRF-CEM leukemia): 7.07 µM
TGI (CCRF-CEM leukemia): > 100 µM
GI50 (HS 578T breast): 5.51 µM
TGI (HS 578T breast): > 100 µM
GI50 (HL-60(TB) leukemia): 18.6 µM
TGI (HL-60(TB) leukemia): > 100 µM
GI50 (NCI-H226 lung): 3.45 µM
TGI (NCI-H226 lung): > 100 µM
GI50 (UACC-62 melanoma): 3.43 µM
TGI (UACC-62 melanoma): 53.8 µM
GI50 (UO-31 renal): 3.13 µM
TGI (UO-31 renal): 80.7 µM
GI50 (NCI-H460 lung): 4.6 µM
TGI (NCI-H460 lung): > 100 µM
GI50 (BT-549 breast): 3.48 µM
TGI (BT-549 breast): 29.7 µM
GI50 (MCF7 breast): 4.34 µM
TGI (MCF7 breast): > 100 µM
GI50 (K-562 leukemia): 6.18 µM
TGI (K-562 leukemia): > 100 µM
GI50 (786-0 renal): 3.8 µM
TGI (786-0 renal): > 100 µM
GI50 (SN12C renal): 5.17 µM
TGI (SN12C renal): > 100 µM
GI50 (OVCAR-8 ovarian): 14.8 µM
TGI (OVCAR-8 ovarian): > 100 µM
GI50 (MDA-MB-231 breast): 18.7 µM
TGI (MDA-MB-231 breast): 83 µM
GI50 (OVCAR-5 ovarian): 17.8 µM
TGI (OVCAR-5 ovarian): > 100 µM
GI50 (UACC-257 melanoma): 4.1 µM
TGI (UACC-257 melanoma): > 100 µM
GI50 (SF-268 CNS): 8.03 µM
TGI (SF-268 CNS): > 100 µM
GI50 (SR leukemia): 12.3 µM
TGI (SR leukemia): > 100 µM
GI50 (HCC-2998 colon): 6.21 µM
TGI (HCC-2998 colon): > 100 µM
GI50 (SF-539 CNS): 16.3 µM
TGI (SF-539 CNS): 43.1 µM
GI50 (A549 NSCLC): 7.42 µM
TGI (A549 NSCLC): > 100 µM
GI50 (U251 CNS): 3.89 µM
TGI (U251 CNS): > 100 µM
GI50 (A498 renal): 8.91 µM
TGI (A498 renal): 83.9 µM
GI50 (NCI/ADR-RES ovarian): 7.51 µM
TGI (NCI/ADR-RES ovarian): > 100 µM
GI50 (HCT-116 colon): 3.42 µM
TGI (HCT-116 colon): > 100 µM
GI50 (MALME-3M melanoma): 8.12 µM
TGI (MALME-3M melanoma): > 100 µM
GI50 (TK-10 renal): 26.9 µM
TGI (TK-10 renal): > 100 µM
GI50 (KM12 colon): 7.42 µM
TGI (KM12 colon): > 100 µM
GI50 (OVCAR-3 ovarian): 3.71 µM
TGI (OVCAR-3 ovarian): > 100 µM
GI50 (SK-OV-3 ovarian): 24.2 µM
TGI (SK-OV-3 ovarian): > 100 µM
GI50 (HT29 colon): 3.75 µM
TGI (HT29 colon): > 100 µM
GI50 (RPMI-8226 leukemia): 3.4 µM
TGI (RPMI-8226 leukemia): > 100 µM
GI50 (SF-295 CNS): 5.54 µM
TGI (SF-295 CNS): > 100 µM
GI50 (HOP-92 NSCLC): 2.22 µM
TGI (HOP-92 NSCLC): 7.08 µM
GI50 (PC-3 prostate): 4 µM
TGI (PC-3 prostate): > 100 µM
GI50 (MDA-MB-435): 4.97 µM
TGI (MDA-MB-435): > 100 µM
GI50 (LOX IMVI melanoma): 8.54 µM
TGI (LOX IMVI melanoma): 41.2 µM
GI50 (HOP-62 NSCLC): 15.1 µM
TGI (HOP-62 NSCLC): > 100 µM
GI50 (EKVX NSCLC): 4.54 µM
TGI (EKVX NSCLC): > 100 µM
GI50 (NCI-H522 lung): 6.95 µM
TGI (NCI-H522 lung): > 100 µM
GI50 (DU-145 prostate): 19.4 µM
TGI (DU-145 prostate): > 100 µM
GI50 (HCT-15 colon): 3.89 µM
TGI (HCT-15 colon): > 100 µM
GI50 (SK-MEL-28 melanoma): 4.87 µM
TGI (SK-MEL-28 melanoma): > 100 µM
GI50 (M14 melanoma): 18.6 µM
TGI (M14 melanoma): > 100 µM
GI50 (SW-620 colon): 7.97 µM
TGI (SW-620 colon): > 100 µM
GI50 (NCI-H23 lung): 5.86 µM
TGI (NCI-H23 lung): > 100 µM
GI50 (SK-MEL-5 melanoma): 4.95 µM
TGI (SK-MEL-5 melanoma): 17.6 µM
GI50 (IGROV1 ovarian): 12.4 µM
TGI (IGROV1 ovarian): > 100 µM
GI50 (MOLT-4 leukemia): 11 µM
TGI (MOLT-4 leukemia): > 100 µM
